Read-outs that look alike come from different tables or passages of the source.
Assays:
Cx50 GJ channels = Cx50 GJ channels (Mus musculus, UniProt P28236); assay type: cell-based; details: for IC50 Cx50 (μM): Table A1, alcohols, amines, nitriles and ureas; for Hill slope / Hill coefficient of Cx50 inhibition: fit to the Hill equation; for effect on Cx50 junctional current: 10 μM
hKCa3.1 = hKCa3.1 (Homo sapiens, UniProt O15554); assay: KCa3.1 current, whole-cell patch-clamp; assay type: cell-based
Cx26 GJ channels = Cx26 GJ channels (Rattus norvegicus, UniProt P21994); assay: Cx26 junctional current, dual whole-cell voltage-clamp in N2A cells; assay type: cell-based; details: 10 μM
Cx32 GJ channels = Cx32 GJ channels (Rattus norvegicus, UniProt P08033); assay: Cx32 junctional current, dual whole-cell voltage-clamp in N2A cells; assay type: cell-based; details: 10 μM
[1] = biological target: Cx45 gap junction channels (Homo sapiens, UniProt P36383); assay: Cx45 junctional current, dual whole-cell voltage-clamp; assay type: cell-based; details: 10 μM
Kv1.1 = Kv1.1 (Mus musculus, UniProt P16388); assay: Kv1.1 current, whole-cell patch-clamp; assay type: cell-based; details: read-out: Percentage of current inhibition, Kv1.1
Kv1.3 = Kv1.3 (Mus musculus, UniProt P16390); assay: Kv1.3 current, whole-cell patch-clamp; assay type: cell-based; details: read-out: Percentage of current inhibition, Kv1.3
Kv2.1 = Kv2.1 (Homo sapiens, UniProt Q14721); assay: Kv2.1 current, whole-cell patch-clamp; assay type: cell-based; details: read-out: Percentage of current inhibition, Kv2.1
Kv3.1 = Kv3.1 (Mus musculus, UniProt P15388); assay: Kv3.1 current, whole-cell patch-clamp; assay type: cell-based; details: read-out: Percentage of current inhibition, Kv3.1
Kv4.2 = Kv4.2 (Rattus norvegicus, UniProt Q63881); assay: Kv4.2 current, whole-cell patch-clamp; assay type: cell-based; details: read-out: Percentage of current inhibition, Kv4.2
Kv7.2/7.3 = Kv7.2/7.3 (Homo sapiens, UniProt O43525+O43526); assay: Kv7.2/7.3 current, whole-cell patch-clamp; assay type: cell-based; details: 10 μM
Kv11.1 (hERG) = Kv11.1 (hERG) (Homo sapiens, UniProt Q12809); assay: Kv11.1; assay type: cell-based; details: HEK-293 cells stably expressing Kv11.1 (hERG)
KCa2.3 = KCa2.3 current, whole-cell patch-clamp; assay type: cell-based, human; details: 10 μM
KCa1.1 (BK) = KCa1.1 (BK) (Homo sapiens, UniProt Q12791); assay: KCa1.1; assay type: cell-based; details: read-out: Percentage of current inhibition, KCa1.1 (BK)
Nav1.2 = Nav1.2 (Mus musculus, UniProt B1AWN6); assay: Nav1.2 current in N1E-115 cells, whole-cell patch-clamp; assay type: cell-based; details: N1E-115, read-out: Percentage of current inhibition, Nav1.2
Nav1.4 = Nav1.4 (Homo sapiens, UniProt P35499); assay: Nav1.4 current, whole-cell patch-clamp; assay type: cell-based; details: 10 μM
sodium channels = assay: Summary of block of the tested sodium channels; assay type: cell-based; details: 10 μM; summary in discussion
potassium channels = assay: Summary of block of the tested potassium channels; assay type: cell-based; details: 10 μM; summary in discussion
[2] = system: primary lens epithelial cells; assay: Junctional currents between primary lens epithelial cells; assay type: cell-based, mouse; details: 10 μM; for reduction of junctional currents in lens epithelial cells, % of the initial conductance: mouse lenses postnatal day 6, means ± SEM
Cx26 hemichannel = details: read-out: IC50, Cx26 hemichannel currents; Xenopus oocytes; literature value; cited from earlier work
Cx38 hemichannel = details: read-out: IC50, Cx38 hemichannel currents; Xenopus oocytes; literature value; cited from earlier work
[3] = biological target: 11β-hydroxysteroid dehydrogenase; details: read-out: IC50, 11β-hydroxysteroid dehydrogenase; ref Monder et al., 1989; cited from earlier work
[4] = system: voltage-gated Ca^2+ currents; details: read-out: IC50, voltage-gated Ca2+ currents; ref Vessey et al., 2004; cited from earlier work
pannexin channels = details: read-out: IC50, pannexin channels; ref Locovei et al., 2007; cited from earlier work
P2x7 receptors = details: read-out: IC50, P2x7 receptors; ref Suadicani et al., 2006; cited from earlier work
[5] = IC50 KCa3.1, Table 1, mean ± SD

Sequence of hKCa3.1 (O15554 whole entry): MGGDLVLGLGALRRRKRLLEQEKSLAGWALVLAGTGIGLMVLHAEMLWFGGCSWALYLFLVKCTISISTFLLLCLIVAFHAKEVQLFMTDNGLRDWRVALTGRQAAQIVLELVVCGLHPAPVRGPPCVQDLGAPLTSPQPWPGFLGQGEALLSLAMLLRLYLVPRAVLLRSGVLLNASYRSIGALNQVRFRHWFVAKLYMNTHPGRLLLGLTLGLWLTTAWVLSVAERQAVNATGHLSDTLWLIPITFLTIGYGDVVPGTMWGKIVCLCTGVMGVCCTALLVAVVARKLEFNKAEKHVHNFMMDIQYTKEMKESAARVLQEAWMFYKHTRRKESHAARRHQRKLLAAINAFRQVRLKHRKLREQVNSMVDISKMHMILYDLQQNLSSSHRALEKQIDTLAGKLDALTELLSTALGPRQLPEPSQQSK
Sequence of Cx50 GJ channels (P28236 whole entry): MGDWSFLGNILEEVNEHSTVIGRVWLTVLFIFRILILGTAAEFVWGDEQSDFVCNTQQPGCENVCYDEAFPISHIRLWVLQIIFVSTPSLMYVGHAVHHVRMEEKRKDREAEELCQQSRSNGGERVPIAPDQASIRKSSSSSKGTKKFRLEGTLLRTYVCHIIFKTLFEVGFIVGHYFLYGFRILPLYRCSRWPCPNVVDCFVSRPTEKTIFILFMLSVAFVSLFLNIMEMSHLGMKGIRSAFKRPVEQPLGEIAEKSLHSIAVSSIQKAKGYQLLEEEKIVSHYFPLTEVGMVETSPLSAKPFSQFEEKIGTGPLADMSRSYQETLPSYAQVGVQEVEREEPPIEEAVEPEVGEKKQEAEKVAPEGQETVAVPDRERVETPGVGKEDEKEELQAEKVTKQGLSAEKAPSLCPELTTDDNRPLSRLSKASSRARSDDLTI
Sequence of Nav1.2 (B1AWN6 whole entry): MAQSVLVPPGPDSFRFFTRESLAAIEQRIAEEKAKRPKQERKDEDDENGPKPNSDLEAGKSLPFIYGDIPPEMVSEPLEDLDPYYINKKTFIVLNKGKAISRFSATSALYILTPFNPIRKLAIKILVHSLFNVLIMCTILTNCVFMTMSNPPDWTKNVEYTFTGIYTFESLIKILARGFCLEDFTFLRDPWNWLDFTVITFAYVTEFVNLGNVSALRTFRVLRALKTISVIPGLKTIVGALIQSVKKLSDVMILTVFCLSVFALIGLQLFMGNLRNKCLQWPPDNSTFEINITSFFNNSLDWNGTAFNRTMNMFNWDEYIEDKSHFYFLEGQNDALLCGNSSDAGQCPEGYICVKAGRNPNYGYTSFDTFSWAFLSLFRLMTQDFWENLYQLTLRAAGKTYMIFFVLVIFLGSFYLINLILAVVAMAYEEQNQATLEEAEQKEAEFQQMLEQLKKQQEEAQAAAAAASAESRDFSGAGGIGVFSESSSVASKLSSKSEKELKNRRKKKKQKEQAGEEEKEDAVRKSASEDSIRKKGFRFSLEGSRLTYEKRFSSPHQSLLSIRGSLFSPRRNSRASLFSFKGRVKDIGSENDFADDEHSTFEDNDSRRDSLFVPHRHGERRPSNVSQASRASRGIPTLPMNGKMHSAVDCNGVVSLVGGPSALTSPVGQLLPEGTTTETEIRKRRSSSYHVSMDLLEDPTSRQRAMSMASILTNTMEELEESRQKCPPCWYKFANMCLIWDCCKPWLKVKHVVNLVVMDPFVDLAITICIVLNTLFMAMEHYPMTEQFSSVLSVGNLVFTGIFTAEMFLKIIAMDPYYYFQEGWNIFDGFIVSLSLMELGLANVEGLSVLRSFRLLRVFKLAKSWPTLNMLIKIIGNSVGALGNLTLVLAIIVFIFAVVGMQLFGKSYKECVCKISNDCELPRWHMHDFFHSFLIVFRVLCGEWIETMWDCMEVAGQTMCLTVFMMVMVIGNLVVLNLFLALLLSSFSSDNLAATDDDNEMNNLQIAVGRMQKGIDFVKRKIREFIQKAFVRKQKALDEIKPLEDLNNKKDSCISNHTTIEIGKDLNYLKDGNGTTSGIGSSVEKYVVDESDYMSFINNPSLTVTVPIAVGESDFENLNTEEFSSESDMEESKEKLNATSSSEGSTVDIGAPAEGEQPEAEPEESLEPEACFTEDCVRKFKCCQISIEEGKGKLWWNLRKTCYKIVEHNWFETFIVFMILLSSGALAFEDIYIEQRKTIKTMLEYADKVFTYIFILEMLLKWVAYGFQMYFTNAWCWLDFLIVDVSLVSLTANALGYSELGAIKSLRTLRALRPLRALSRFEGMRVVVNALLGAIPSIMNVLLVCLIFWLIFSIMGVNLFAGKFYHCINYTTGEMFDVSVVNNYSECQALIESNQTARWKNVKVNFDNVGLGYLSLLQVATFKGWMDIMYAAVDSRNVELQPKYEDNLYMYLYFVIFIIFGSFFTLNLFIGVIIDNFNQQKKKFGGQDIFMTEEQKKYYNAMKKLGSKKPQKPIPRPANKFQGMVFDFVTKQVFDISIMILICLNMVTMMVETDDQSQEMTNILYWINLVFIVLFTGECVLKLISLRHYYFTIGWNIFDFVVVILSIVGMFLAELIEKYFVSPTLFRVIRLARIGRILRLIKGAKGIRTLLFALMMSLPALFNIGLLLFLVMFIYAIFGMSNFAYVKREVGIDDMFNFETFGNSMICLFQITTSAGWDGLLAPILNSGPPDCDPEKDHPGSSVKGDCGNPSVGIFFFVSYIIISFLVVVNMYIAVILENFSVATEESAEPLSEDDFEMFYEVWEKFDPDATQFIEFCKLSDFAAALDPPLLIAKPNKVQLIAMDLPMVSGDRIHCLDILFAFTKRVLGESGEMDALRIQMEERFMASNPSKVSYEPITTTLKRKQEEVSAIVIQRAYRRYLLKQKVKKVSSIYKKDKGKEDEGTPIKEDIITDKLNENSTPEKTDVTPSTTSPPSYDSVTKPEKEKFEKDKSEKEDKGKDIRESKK
Sequence of Kv1.3 (P16390 whole entry): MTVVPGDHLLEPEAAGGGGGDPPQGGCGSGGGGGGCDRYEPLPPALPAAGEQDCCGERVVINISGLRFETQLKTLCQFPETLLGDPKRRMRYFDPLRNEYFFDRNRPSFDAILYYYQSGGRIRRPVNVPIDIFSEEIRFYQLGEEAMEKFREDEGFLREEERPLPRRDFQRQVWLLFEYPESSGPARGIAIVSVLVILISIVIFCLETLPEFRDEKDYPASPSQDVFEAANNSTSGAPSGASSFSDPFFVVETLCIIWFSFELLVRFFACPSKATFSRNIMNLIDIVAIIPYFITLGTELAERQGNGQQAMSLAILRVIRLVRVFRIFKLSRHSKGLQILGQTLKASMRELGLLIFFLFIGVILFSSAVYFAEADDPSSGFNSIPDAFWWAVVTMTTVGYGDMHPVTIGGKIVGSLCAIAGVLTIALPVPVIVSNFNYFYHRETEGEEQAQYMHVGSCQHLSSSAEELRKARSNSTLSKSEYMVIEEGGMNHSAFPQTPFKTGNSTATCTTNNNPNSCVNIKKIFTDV
Sequence of Cx32 GJ channels (P08033 whole entry): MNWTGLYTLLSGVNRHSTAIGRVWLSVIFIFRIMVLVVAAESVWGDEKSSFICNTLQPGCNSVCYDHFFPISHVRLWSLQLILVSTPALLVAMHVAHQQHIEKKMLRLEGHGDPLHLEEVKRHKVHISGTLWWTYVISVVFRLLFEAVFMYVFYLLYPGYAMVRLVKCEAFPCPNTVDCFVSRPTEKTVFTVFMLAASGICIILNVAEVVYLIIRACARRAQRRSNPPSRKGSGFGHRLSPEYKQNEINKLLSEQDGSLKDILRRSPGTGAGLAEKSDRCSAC
Sequence of KCa1.1 (BK) (Q12791 whole entry): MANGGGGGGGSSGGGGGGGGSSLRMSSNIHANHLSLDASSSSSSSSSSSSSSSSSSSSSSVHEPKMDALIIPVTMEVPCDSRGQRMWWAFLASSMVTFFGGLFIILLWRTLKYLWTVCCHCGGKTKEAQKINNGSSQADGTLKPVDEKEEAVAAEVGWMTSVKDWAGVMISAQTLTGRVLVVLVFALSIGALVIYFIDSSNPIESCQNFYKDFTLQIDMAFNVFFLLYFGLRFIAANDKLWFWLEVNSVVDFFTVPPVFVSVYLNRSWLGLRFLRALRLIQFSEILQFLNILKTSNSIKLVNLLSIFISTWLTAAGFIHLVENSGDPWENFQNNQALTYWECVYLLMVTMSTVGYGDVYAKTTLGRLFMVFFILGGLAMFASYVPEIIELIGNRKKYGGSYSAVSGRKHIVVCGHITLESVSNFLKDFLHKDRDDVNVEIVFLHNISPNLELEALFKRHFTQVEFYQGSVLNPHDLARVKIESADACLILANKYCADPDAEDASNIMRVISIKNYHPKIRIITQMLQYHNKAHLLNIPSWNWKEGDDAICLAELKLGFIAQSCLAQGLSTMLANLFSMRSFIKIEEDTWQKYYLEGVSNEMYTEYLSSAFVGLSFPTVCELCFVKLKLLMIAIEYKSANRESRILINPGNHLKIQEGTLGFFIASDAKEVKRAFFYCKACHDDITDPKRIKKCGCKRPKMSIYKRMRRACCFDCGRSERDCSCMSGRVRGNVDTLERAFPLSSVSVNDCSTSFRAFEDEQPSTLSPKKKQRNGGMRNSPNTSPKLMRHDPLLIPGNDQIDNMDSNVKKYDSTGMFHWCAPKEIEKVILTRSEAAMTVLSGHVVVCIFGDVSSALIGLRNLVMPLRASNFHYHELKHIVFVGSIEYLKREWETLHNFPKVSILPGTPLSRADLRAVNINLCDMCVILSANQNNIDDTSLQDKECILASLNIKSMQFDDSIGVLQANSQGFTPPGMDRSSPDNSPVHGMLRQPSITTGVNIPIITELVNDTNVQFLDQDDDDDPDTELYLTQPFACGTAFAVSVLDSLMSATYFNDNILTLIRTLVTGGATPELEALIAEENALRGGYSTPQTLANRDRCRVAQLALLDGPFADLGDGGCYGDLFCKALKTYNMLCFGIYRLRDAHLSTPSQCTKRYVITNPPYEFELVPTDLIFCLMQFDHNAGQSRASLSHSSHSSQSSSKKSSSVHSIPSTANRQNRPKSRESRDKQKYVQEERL

Structure (SMILES): COc1ccccc1C(O)(c1ccccc1)c1ccccc1 [T117, (2-Methoxyphenyl)diphenylmethanol]
- IC50 Cx50 (μM) (Cx50 GJ channels): No effect

Structure (SMILES): COc1ccccc1C(Nc1nccs1)(c1ccccc1)c1ccccc1 [T122, N-[(2-Methoxyphenyl)diphenylmethyl]-1,3-thiazol-2-amine]
- IC50 (Cx50 GJ channels): 1200 nM
- selectivity over other connexins as well as major neuronal and cardiac voltage-gated K+ and Na+ channels (Cx50 GJ channels): at least 10 fold
- Hill slope / Hill coefficient of Cx50 inhibition (Cx50 GJ channels): 1.6
- IC50 (hKCa3.1; [5]): 10.2 µM
- IC50 (hKCa3.1; IC50 KCa3.1, running text): 10 µM
- inhibition of Cx26 GJ channel current / reduction of junction conductance (Cx26 GJ channels): no significant effect
- inhibition of Cx32 GJ channel current / reduction of junction conductance (Cx32 GJ channels): no significant effect
- effect on Cx45 gap junction channels [1]: no significant effect
- inhibition at 10 µM (Kv1.1): 65 ± 10%
- inhibition at 10 µM (Kv1.3): 52 ± 2%
- inhibition at 10 µM (Kv2.1): 28 ± 4%
- inhibition at 10 µM (Kv3.1): 32 ± 12%
- inhibition at 10 µM (Kv4.2): 16 ± 4%
- Percentage of current inhibition, Kv7.2/7.3 (Kv7.2/7.3): No effect (n = 3)
- inhibition at 10 µM (Kv11.1 (hERG)): 42 ± 3%
- Percentage of current inhibition, KCa2.3 (KCa2.3): No effect (n = 3)
- inhibition at 10 µM (KCa1.1 (BK)): 43 ± 4%
- inhibition at 10 µM (Nav1.2): 11 ± 1%
- Percentage of current inhibition, Nav1.4 (Nav1.4): No effect (n = 3)
- inhibition of sodium channels (sodium channels): < 11%
- inhibition of most of the tested potassium channels (potassium channels): 18–43%
- reversibility of reduction of junctional currents on washout [2]: reversible
- reduction of junctional currents in lens epithelial cells, % of the initial conductance [2]: 67 ± 9%

Structure (SMILES): Ic1ccccc1C(Nc1nccs1)(c1ccccc1)c1ccccc1 [T136, N-[(2-Iodophenyl)diphenylmethyl]-1,3-thiazol-2-amine]
- IC50 (Cx50 GJ channels): 2400 nM
- selectivity over other connexins as well as major neuronal and cardiac voltage-gated K+ and Na+ channels (Cx50 GJ channels): at least 10 fold
- Hill slope / Hill coefficient of Cx50 inhibition (Cx50 GJ channels): 1.7
- IC50 (hKCa3.1; [5]): 1.3 µM
- inhibition of Cx26 GJ channel current / reduction of junction conductance (Cx26 GJ channels): no significant effect
- inhibition of Cx32 GJ channel current / reduction of junction conductance (Cx32 GJ channels): no significant effect
- effect on Cx45 gap junction channels [1]: no significant effect
- inhibition at 10 µM (Kv1.1): 28 ± 9%
- inhibition at 10 µM (Kv1.3): 18 ± 4%
- inhibition at 10 µM (Kv2.1): 28 ± 4%
- inhibition at 10 µM (Kv3.1): 37 ± 16%
- inhibition at 10 µM (Kv4.2): 15 ± 3%
- Percentage of current inhibition, Kv7.2/7.3 (Kv7.2/7.3): No effect (n = 2)
- inhibition at 10 µM (Kv11.1 (hERG)): 27 ± 4%
- Percentage of current inhibition, KCa2.3 (KCa2.3): No effect (n = 3)
- inhibition at 10 µM (KCa1.1 (BK)): 26 ± 2%
- inhibition at 10 µM (Nav1.2): 9 ± 0.5%
- Percentage of current inhibition, Nav1.4 (Nav1.4): No effect (n = 3)
- inhibition of sodium channels (sodium channels): < 11%
- inhibition of most of the tested potassium channels (potassium channels): 18–43%
- reversibility of reduction of junctional currents on washout [2]: reversible
- reduction of junctional currents in lens epithelial cells, % of the initial conductance [2]: 64 ± 8%

Structure (SMILES): FC(F)(F)Oc1ccc(NC(c2ccccc2)(c2ccccc2)c2ccccc2Cl)cc1 [T150, N-[(2-Chlorophenyl)diphenylmethyl]-4-(trifluoromethoxy)aniline]
- effect on Cx50 junctional current (Cx50 GJ channels): no effect

Structure (SMILES): Nc1ccccc1C(O)(c1ccccc1)c1ccccc1 [T154-OH, (2-Aminophenyl)diphenylmethanol]
- IC50 Cx50 (μM) (Cx50 GJ channels): No effect

Structure (SMILES): c1ccc(C(c2ccccc2)c2ccncc2)cc1 [T160, diphenyl-4-pyridylmethane]
- IC50 (Cx50 GJ channels): 4000 nM
- IC50 (hKCa3.1): 8.6 µM

Structure (SMILES): COc1ccccc1C(O)(c1ccccc1)c1ccccc1OC [T165, Bis-(2-methoxyphenyl)(phenyl)methanol]
- IC50 Cx50 (μM) (Cx50 GJ channels): No effect

Structure (SMILES): c1ccc(C(c2ccccc2)c2ccccc2)cc1 [Triphenylmethane, triphenylmethane]
- IC50 (Cx50 GJ channels): 900 nM
- IC50 (hKCa3.1; IC50 KCa3.1 (μM), Table A1): 3.7 µM

Structure (SMILES): OC(c1ccccc1)(c1ccccc1)c1ccccc1 [Triphenylmethanol, triphenylmethanol]
- IC50 (Cx50 GJ channels): 1000 nM
- IC50 (hKCa3.1; IC50 KCa3.1 (μM), Table A1): 0.5 µM

Structure (SMILES): CC1(C)[C@@H](OC(=O)CCC(=O)O)CC[C@]2(C)[C@H]3C(=O)C=C4[C@@H]5C[C@@](C)(C(=O)O)CC[C@]5(C)CC[C@@]4(C)[C@]3(C)CC[C@@H]12 [carbenoxolone]
- IC50 (Cx26 hemichannel): 21 µM
- IC50 (Cx38 hemichannel): 34 µM
- IC50 [3]: ~5 µM
- IC50 [4]: 48 µM
- IC50 (pannexin channels): 2 to 5 µM
- IC50 (P2x7 receptors): 175 nM

Structure (SMILES): O=c1c(O)c(-c2ccc(O)c(O)c2)oc2cc(O)cc(O)c12 [quercetin, reference compound]
- effect on Cx50 junctional current (Cx50 GJ channels): no effect

Structure (SMILES): C[C@@H]1O[C@@H](OC[C@H]2O[C@@H](Oc3c(-c4ccc(O)c(O)c4)oc4cc(O)cc(O)c4c3=O)[C@H](O)[C@@H](O)[C@@H]2O)[C@H](O)[C@H](O)[C@H]1O [rutin, reference compound]
- reversibility of inhibition of Cx50 junctional currents upon washout (Cx50 GJ channels): only partially reversible
- effect on Cx50 junctional current (Cx50 GJ channels): significant inhibition
